Results taken from patent US20150352099A1, “Compositions and Methods of Reducing Sedation” (Mentinova Inc., priority 2014, published 2015).
Where a name gives a salt, the structure may show the parent alone.

Assays:
[1] = Pharmacokinetic parameters (Cmax, AUC, Tmax) of opioid given alone or with dopaminergic agent; settings: sc, 0.25 mg/kg; for AUC / Cmax: plasma; for Tmax: serum
[2] = system: Parkinsonian non-human primates; assay: Drug effects on the nervous system (DENS) sedation scores, nalbuphine monotherapy; format: in vivo; settings: for Sedation Items: Appetite / Sedation Items: Attentiveness / Sedation Items: Eye Movement / Sedation Items: Mouth (excessive salivation, drooling) / Sedation Items: Reactivity: DENS score, total of all intervals; for Sedation Items: Total: total sedation score
Experimental: (§1) Parkinsonian non-human primates (n=6) were injected (s.c.) with Nalbuphine HCl (NB, dissolved in saline) and evaluated for changes in parkinsonian motor disability (MDS) and drug effects on the nervous system (DENS). Evaluations were performed immediately before injection (baseline), at 30 minutes post-injection and again every 20 minutes thereafter for 110 minutes or until effects were no longer observable. Five NB doses (0.0, 0.016, 0.05, 0.16, 0.50 mg/kg) were tested in each animal with each dose tested 3 times in all animals.
Itemized Sedation scores (see Uthayathas et al., “Assessment of adverse effects of neurotropic drugs in monkeys with the ‘drug effects on the nervous system’ (DENS) scale,” J Neurosci Methods. 2013 Apr. 30; 215(1):97-102, for complete description of the DENS scale, incorporated by reference herein in its entirety). The items in this scale are given in the table with the exception of “Involuntary Movements”, “Bowel” and “Bladder”, which were omitted because they were not scored with this scale. Scores are total values from adding all intervals. Higher scores reflect increased sedative effects. […] Values represent the means±SEM of all animals (n=6).

[3] = system: Parkinsonian non-human primates; assay: Parkinsonian motor disability scores (MDS) versus sedation scores; format: in vivo; settings: nalbuphine 0.016 mg/kg-0.50 mg/kg in primates; the FIGURE
Excerpt: The foregoing summary, as well as the following detailed description of the invention, will be better understood when read in conjunction with the appended drawings. The FIGURE is a graph showing total sedation scores as a function of motor disability in non-human primates treated with nalbuphine HCl monotherapy.
In other words, severity of dopamine deficiency is a predictor of the sedation severity for the same dose of nalbuphine given to different animals.
as §1, with “Five NB doses (0.0, 0.016, 0.05, 0.16, 0.50 mg/kg) were tested in each animal with each dose tested 3 times in all animals.” left out
Animals (n=6) were injected (s.c.) with NB immediately prior to receiving L-dopa (LD; levodopa methyl ester plus 25% benserazide, dissolved in saline and given s.c.). The LD dose was determined individually for each animal based on ‘on’ response and consistency of dyskinesia. Animals were evaluated for changes in parkinsonian motor disability scores (MDS), drug effects on the nervous system (Sedation) and severity of dyskinesias. […]

[4] = NB 0.016 mg/kg s.c., mean ± SEM n=6
[5] = NB 0.05 mg/kg s.c., mean ± SEM n=6
[6] = NB 0.16 mg/kg s.c., mean ± SEM n=6
[7] = NB 0.5 mg/kg s.c., mean ± SEM n=6

## Oc1ccc2c3c1O[C@H]1[C@@H](O)CC[C@@]4(O)[C@@H](C2)N(CC2CCC2)CC[C@]314 [NB, Nalbuphine HCl]
[1]; average AUC of opioid, nalbuphine 0.25 mg/kg subcutaneously with L-DOPA 25 mg/kg subcutaneously
  AUC: ~89 ng·h/mL
[1]; average AUC, nalbuphine 0.25 mg/kg subcutaneously, alone
  AUC: ~96 ng·h/mL
[1]; average Cmax of opioid, nalbuphine 0.25 mg/kg subcutaneously with L-DOPA 25 mg/kg subcutaneously
  Cmax: ~55 ng/mL
[1]; average Cmax, nalbuphine 0.25 mg/kg subcutaneously, alone
  Cmax: ~49 ng/mL
[1]; average Tmax of opioid, nalbuphine 0.25 mg/kg subcutaneously with L-DOPA 25 mg/kg subcutaneously
  Tmax: ~32 min
[1]; average Tmax, nalbuphine 0.25 mg/kg subcutaneously, alone
  Tmax: ~37 min
[2]; [4]
  Sedation Items: Appetite: 0.13 ± 0.13
  Sedation Items: Attentiveness: 2.00 ± 0.73
  Sedation Items: Eye Movement: 0.17 ± 0.17
  Sedation Items: Mouth (excessive salivation, drooling): 0.13 ± 0.09
  Sedation Items: Reactivity: 0.67 ± 0.36
[2]; NB 0.016 mg/kg s.c.
  Sedation Items: Total: 3.08
[2]; [5]
  Sedation Items: Appetite: 0.56 ± 0.26
  Sedation Items: Attentiveness: 2.75 ± 1.07
  Sedation Items: Eye Movement: 0.54 ± 0.25
  Sedation Items: Mouth (excessive salivation, drooling): 0.17 ± 0.11
  Sedation Items: Reactivity: 1.58 ± 0.85
[2]; NB 0.05 mg/kg s.c.
  Sedation Items: Total: 5.61
[2]; NB 0.16 mg/kg s.c., mean n=6
  Sedation Items: Mouth (excessive salivation, drooling): 0.00
[2]; [6]
  Sedation Items: Appetite: 1.48 ± 1.03
  Sedation Items: Attentiveness: 3.17 ± 1.51
  Sedation Items: Eye Movement: 2.44 ± 0.94
  Sedation Items: Reactivity: 4.1 ± 1.60
[2]; NB 0.16 mg/kg s.c.
  Sedation Items: Total: 11.19
[2]; [7]
  Sedation Items: Appetite: 4.79 ± 0.78
  Sedation Items: Attentiveness: 5.17 ± 1.34
  Sedation Items: Eye Movement: 3.29 ± 1.10
  Sedation Items: Mouth (excessive salivation, drooling): 1.17 ± 1.07
  Sedation Items: Reactivity: 6.65 ± 2.15
[2]; NB 0.5 mg/kg s.c.
  Sedation Items: Total: 21.06
[3]
  parkinsonian motor disability scores (MDS) versus sedation scores: correlate with sedation scores
